The text below walks through data of patent publication US11530213B2, “Naphthyridinone derivatives and their use in the treatment of arrhythmia” (NOVARTIS AG, priority 2016, dated 2022).

pIC50: −log10 of the molar value.

GIRK1/4, sequence (P48549 whole entry): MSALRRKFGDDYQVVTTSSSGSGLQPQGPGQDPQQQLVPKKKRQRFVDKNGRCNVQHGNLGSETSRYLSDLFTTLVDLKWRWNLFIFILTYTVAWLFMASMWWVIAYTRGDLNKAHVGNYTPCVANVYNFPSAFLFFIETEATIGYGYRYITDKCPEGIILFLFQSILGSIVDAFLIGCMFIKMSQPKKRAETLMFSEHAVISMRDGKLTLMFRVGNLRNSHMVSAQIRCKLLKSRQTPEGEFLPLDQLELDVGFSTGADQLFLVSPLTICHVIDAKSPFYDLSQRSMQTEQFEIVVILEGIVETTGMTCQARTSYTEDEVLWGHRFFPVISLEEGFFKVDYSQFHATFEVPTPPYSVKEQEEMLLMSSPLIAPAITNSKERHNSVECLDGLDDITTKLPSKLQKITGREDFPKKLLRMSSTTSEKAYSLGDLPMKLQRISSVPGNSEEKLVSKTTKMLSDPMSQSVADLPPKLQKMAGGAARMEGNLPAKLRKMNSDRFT
GIRK1/4, sequence (P48544 whole entry): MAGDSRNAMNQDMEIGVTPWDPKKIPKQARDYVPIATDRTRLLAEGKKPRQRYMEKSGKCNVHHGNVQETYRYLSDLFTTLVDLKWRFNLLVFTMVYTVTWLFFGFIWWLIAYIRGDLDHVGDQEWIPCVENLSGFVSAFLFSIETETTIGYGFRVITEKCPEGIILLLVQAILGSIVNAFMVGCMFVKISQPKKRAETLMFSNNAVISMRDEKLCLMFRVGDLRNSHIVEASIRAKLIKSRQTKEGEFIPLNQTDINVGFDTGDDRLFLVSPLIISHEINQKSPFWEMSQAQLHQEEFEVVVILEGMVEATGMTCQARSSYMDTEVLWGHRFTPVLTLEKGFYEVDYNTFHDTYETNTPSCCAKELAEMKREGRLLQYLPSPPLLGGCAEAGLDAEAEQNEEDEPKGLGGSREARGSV

This assay concerns the target GIRK1/4 (Homo sapiens (Human), UniProt P48544+P48549). Kind of assay: GIRK1/4 inhibition, Quattro (IonWorks) population patch clamp, inward potassium current in GIRK 1/4 HEK293 stable cells (test assay No. 1). The format is cell-based. Conditions: percentage of current inhibition normalized to DMSO-only control. How it is done:
The activity of a compound according to the present invention can be assessed by the following in vitro method. • 1. Buffers: • a. External buffer: 10 mM NaCl, 50 mM Na Gluconate, 80 mM K Gluconate, 1.8 mM CaCl2, 1 mM MgCl2, 10 mM HEPES, 10 mM Glucose, pH 7.4; osmolality […]. • b. Internal buffer: 30 mM KCl, 100 mM K Gluconate, 1 mM MgCl2, 10 mM HEPES, 1 mM EGTA, 10 mM NaCl, pH 7.2; osmolality […]. • 2. Compounds: • a. Prepare seven-fold compound dilution series (10 mM to 20 uM) in 100% DMSO, in 384-well polypropylene plates. • b. Propafenone (Sigma Aldrich, catalog number P4670) is used as a positive control and DMSO for neutral control • c. Resuspend 1 ul of compounds in DMSO into 65.7 ul external buffer in 384-well polypropylene plate and load into Plate 1 section of Molecular Devices Quattro • 3. Quattro setup: • a. Load 384-well Population Patch Plate (Molecular Devices #9000-0902) into Quattro • b. Fill Quattro F-soak trough with 20% DMSO and 50% EtOH • c. Fill Quattro buffer trough with external buffer • d. Attach internal buffer flask to Quattro internal buffer tubing • e. Attach PBS (Phosphate Buffered Saline, minus Ca^++ and Mg^++, pH7.4) bottle to F-head & E-head wash on Quattro • 4. Antibiotic: • a. Resuspend 5.6 mg amphotericin B (Sigma Aldrich, catalog number A2411) in 175 ul DMSO • b. Add the resulting solution to 50 ml internal buffer, mix and attach to antibiotic tubing port on Quattro • 5. Cells: • a. Use GIRK 1/4 HEK293 stable cells (obtained from ChanTest, 14656 Neo Parkway, Cleveland, Ohio 44128) grown to […] confluency in the following cell culture medium: DMEM containing 10% (v/v) Fetal Bovine Serum, Penicillin/Streptomycin (at “1×” concentration from a 100× stock), 0.5 mg/ml G418 and 0.1 mg/ml Zeocin. • b. Wash cells with PBS (minus Ca^++ and Mg^++), Detach cells using Detachin (Genlantis, 11011 Torreyana, San Diego, Calif. 92121), and resuspend in external buffer (5 ml final volume at 2.0-2.1×10^6 cells/ml) • c. Load into cell trough of Quattro • 6. Assay Protocol: • Quattro is controlled using IonWorks v2 software to perform the following steps: • a. Add 3.5 ul cells plus 3.5 ul external buffer to wells of Quattro Patch Plate • b. Circulate amphotericin B and internal buffer onto cells • c. Apply the following voltage protocol: Pulse 1: 15 mV for 300 milliseconds (ms), followed by Pulse 2: −120 mV for 400 ms, then Pulse 3: −15 mV for 400 ms, and finally Pulse 4: −120 mV to 40 mV over 500 ms (this is a voltage ramp). • d. Measure magnitude of inward potassium current at time point between 1200-1220 ms from start of Pulse 1 (i.e. during the voltage ramp phase). • e. Add 3.5 ul of diluted compounds (or DMSO) to wells and repeat steps c-d (final compound concentrations are 50 uM to 0.1 uM, for potent compounds 0.5 uM to 0.01 uM and each concentration is tested in quadruplicate—i.e. in 4 separate wells). • f. The difference between current magnitude pre vs. post-compound gives a measure of GIRK1/4 inhibition. • 7. Data analysis:
IC50 values are calculated by plotting the percentage of current inhibition (normalized to the DMSO-only control) as a function of compound concentration using standard data analysis software.
For orientation: The patch-clamp technique gives a direct electrical read-out from membranes.
A word on the pIC50: it is the IC50 on a negative log10 scale, so that one unit is a factor of ten. The compound `Cc1cc(=O)c2c(OCC(O)C(C)(C)O)ncc(Cl)c2n1-c1c(Cl)cccc1Cl` (single isomer, unassigned) [Example 58, 8-chloro-1-(2,6-dichlorophenyl)-5-(2,3-dihydroxy-3-methylbutoxy)-2-methyl-1,6-naphthyridin-4(1H)-one] had a pIC50 of 7.77.
Next, `Cc1cc(=O)c2c(OCC(O)C(C)(C)O)ncc(Cl)c2n1-c1c(Cl)cccc1Cl` (single isomer, unassigned) [Example 59, 8-chloro-1-(2,6-dichlorophenyl)-5-(2,3-dihydroxy-3-methylbutoxy)-2-methyl-1,6-naphthyridin-4(1H)-one]: 7.85; `O=c1cc(CO)n(-c2c(Cl)cccc2Cl)c2c(Cl)cnc(CCC(O)CO)c12` (single isomer, unassigned) [Example 76, 8-chloro-1-(2,6-dichlorophenyl)-5-(3,4-dihydroxybutyl)-2-(hydroxymethyl)-1,6-naphthyridin-4(1H)-one]: 6.45; `O=c1cc(CO)n(-c2c(Cl)cccc2Cl)c2c(Cl)cnc(CCC(O)CO)c12` (single isomer, unassigned) [Example 77, 8-chloro-1-(2,6-dichlorophenyl)-5-(3,4-dihydroxybutyl)-2-(hydroxymethyl)-1,6-naphthyridin-4(1H)-one]: 6.44.
As to `O=c1cc(CO)n(-c2c(Cl)cccc2Cl)c2c(Cl)cnc(CC(O)CO)c12` (single isomer, unassigned) [Example 79, 8-Chloro-1-(2,6-dichlorophenyl)-5-(2,3-dihydroxypropyl)-2-(hydroxymethyl)-1,6-naphthyridin-4(1H)-one], the pIC50 was 6.52.
On to `O=c1cc(CO)n(-c2c(Cl)cccc2Cl)c2c(Cl)cnc(CC(O)CO)c12` (single isomer, unassigned) [Example 80, 8-Chloro-1-(2,6-dichlorophenyl)-5-(2,3-dihydroxypropyl)-2-(hydroxymethyl)-1,6-naphthyridin-4(1H)-one], for which the pIC50 is 6.44.
`O=c1cc(CO)n(-c2c(Cl)cccc2Cl)c2c(Cl)cnc(C(O)CO)c12` (single isomer, unassigned) [Example 83, 8-Chloro-1-(2,6-dichlorophenyl)-5-(1,2-dihydroxyethyl)-2-(hydroxymethyl)-1,6-naphthyridin-4(1H)-one] showed a pIC50 of 6.56.
Turning to `O=c1cc(CO)n(-c2c(Cl)cccc2Cl)c2c(Cl)cnc(C(O)CO)c12` (single isomer, unassigned) [Example 84, 8-Chloro-1-(2,6-dichlorophenyl)-5-(1,2-dihydroxyethyl)-2-(hydroxymethyl)-1,6-naphthyridin-4(1H)-one], the negative-log IC50 (pIC50) is 6.94.
In turn, `O=c1cc(CO)n(-c2c(Cl)cccc2Cl)c2c(Cl)cnc(OC[C@@H](O)CO)c12` [Example 1, (S)-8-Chloro-1-(2,6-dichlorophenyl)-5-(2,3-dihydroxpropoxy)-2-(hydroxymethyl)-1,6-naphthyridin-4(1H)-one] gave a negative-log IC50 (pIC50) of 6.98.
Regarding `O=c1cc(CO)n(-c2c(Cl)cccc2Cl)c2c(Cl)cnc(OC[C@H](O)CO)c12` [Example 2, (R)-8-chloro-1-(2,6-dichlorophenyl)-5-(2,3-dihydroxypropoxy)-2-(hydroxymethyl)-1,6-naphthyridin-4(1H)-one], the pIC50 is 6.80.
For `O=c1cc(CO)n(-c2c(Cl)cccc2Cl)c2c(Cl)cnc(OCC(O)CO)c12` (stereo not drawn) [Example 3, 8-chloro-1-(2,6-dichlorophenyl)-5-(2,3-dihydroxypropoxy)-2-(hydroxymethyl)-1,6-naphthyridin-4(1H)-one], the negative logarithm of the IC50 (pIC50) is 6.88.
Next, `CC(C)(O)C(O)COc1ncc(Cl)c2c1c(=O)cc(CO)n2-c1c(Cl)cccc1Cl` (stereo not drawn) [Example 4, 8-chloro-1-(2,6-dichlorophenyl)-5-(2,3-dihydroxy-3-methylbutoxy)-2-(hydroxymethyl)-1,6-naphthyridin-4(1H)-one]: 6.85.
Take `O=c1cc(CO)n(-c2c(Cl)cccc2Cl)c2c(Cl)cnc(OCC3(CO)COC3)c12` [Example 5, 8-chloro-1-(2,6-dichlorophenyl)-2-(hydroxymethyl)-5-((3-(hydroxymethyl)oxetan-3-yl)methoxy)-1,6-naphthyridin-4(1H)-one]: the pIC50 is 6.63.
On to `O=c1cc(CO)n(-c2c(Cl)cccc2Cl)c2c(Cl)cnc(OCCOCCOCCOCCO)c12` [Example 7, 8-chloro-1-(2,6-dichlorophenyl)-5-(2-(2-(2-(2-hydroxyethoxy)ethoxy)ethoxy)ethoxy)-2-(hydroxymethyl)-1,6-naphthyridin-4(1H)-one], for which the pIC50 was 6.37.
The compound `O=c1cc(CO)n(-c2c(Cl)cccc2Cl)c2c(Cl)cnc(OC(CO)CO)c12` [Example 9, 8-chloro-1-(2,6-dichlorophenyl)-5-((1,3-dihydroxypropan-2-yl)oxy)-2-(hydroxymethyl)-1,6-naphthyridin-4(1H)-one] had a pIC50 of 6.59.
`O=c1cc(CO)n(-c2c(Cl)cccc2Cl)c2c(Cl)cnc(OCC3COC3)c12` [Example 10, 8-chloro-1-(2,6-dichlorophenyl)-2-(hydroxymethyl)-5-(oxetan-3-ylmethoxy)-1,6-naphthyridin-4(1H)-one] had a pIC50 of 6.92.
For the compound `COCCOCCOc1ncc(Cl)c2c1c(=O)cc(CO)n2-c1c(Cl)cccc1Cl` [Example 11, 8-chloro-1-(2,6-dichlorophenyl)-2-(hydroxymethyl)-5-(2-(2-methoxyethoxy)ethoxy)-1,6-naphthyridin-4(1H)-one], the negative logarithm of the IC50 (pIC50) was 7.14.
In turn, `O=c1cc(CO)n(-c2c(Cl)cccc2Cl)c2c(Cl)cnc(OCCO)c12` [Example 12, 8-chloro-1-(2,6-dichlorophenyl)-5-(2-hydroxyethoxy)-2-(hydroxymethyl)-1,6-naphthyridin-4(1H)-one] showed a pIC50 of 7.44.
As to `O=c1cc(CO)n(-c2c(Cl)cccc2Cl)c2c(Cl)cnc(NCCOCCOCCOCCO)c12` [Example 13, 8-chloro-1-(2,6-dichlorophenyl)-5-((2-(2-(2-(2-hydroxyethoxy)ethoxy)ethoxy)ethyl)amino)-2-(hydroxymethyl)-1,6-naphthyridin-4(1H)-one], the negative-log IC50 (pIC50) is 7.15.
Then `Cc1cc(=O)c2c(OCCOCCOCCOCCOCCO)ncc(Cl)c2n1-c1c(Cl)cccc1Cl` [Example 14, 8-chloro-1-(2,6-dichlorophenyl)-5-((14-hydroxy-3,6,9,12-tetraoxatetradecyl)oxy)-2-methyl-1,6-naphthyridin-4(1H)-one], with 7.28; and `COCCOCCOCCOCCOCCOCCOc1ncc(Cl)c2c1c(=O)cc(C)n2-c1c(Cl)cccc1Cl` [Example 15, 5-(2,5,8,11,14,17-hexaoxanonadecan-19-yloxy)-8-chloro-1-(2,6-dichlorophenyl)-2-methyl-1,6-naphthyridin-4(1H)-one], with 7.60.
Next, `Cc1cc(=O)c2c(NCCOCCOCCOCCO)ncc(Cl)c2n1-c1c(Cl)cccc1C#N` [Example 16, 3-chloro-2-(8-chloro-5-((2-(2-(2-(2-hydroxyethoxy)ethoxy)ethoxy)ethyl)amino)-2-methyl-4-oxo-1,6-naphthyridin-1(4H)-yl)benzonitrile]: 6.75.
Next, `Cc1cc(=O)c2c(NCC(O)C(=O)NCCO)ncc(Cl)c2n1-c1c(Cl)cccc1Cl` (stereo not drawn) [Example 17, 3-((8-chloro-1-(2,6-dichlorophenyl)-2-methyl-4-oxo-1,4-dihydro-1,6-naphthyridin-5-yl)amino)-2-hydroxy-N-(2-hydroxyethyl)propanamide]: 7.22.
As to `Cc1cc(=O)c2c(OCC(O)CO)cncc2n1-c1c(Cl)cc(C#N)cc1Cl` (stereo not drawn) [Example 18, 3,5-dichloro-4-(5-(2,3-dihydroxypropoxy)-2-methyl-4-oxo-1,7-naphthyridin-1(4H)-yl)benzonitrile], the negative-log IC50 (pIC50) was 5.73.
